Laboratory results published in patent US9708318B2, “Bicyclic heterocycles as FGFR4 inhibitors” (Incyte Corporation, priority 2015, dated 2017).
Like-named read-outs stand apart in the source and are kept apart here.

Legend:
FGFR2 = FGFR2 (Homo sapiens (Human), UniProt P21802); test: FGFR Enzymatic Assay (FRET peptide phosphorylation), FGFR2; format: biochemical
Protocol: (§1) The inhibitor potency of the exemplified compounds was measured in an enzyme assay that measures peptide phosphorylation using FRET measurements to detect product formation. Inhibitors were serially diluted in DMSO and a volume of 0.5 μL was transferred to the wells of a 384-well plate.
(§2) The enzymes were purchased from Millipore or Invitrogen.
(§3) GraphPad prism3 was used to analyze the data.

FGFR3 enzyme = FGFR3 enzyme (Homo sapiens (Human), UniProt P22607); test: FGFR Enzymatic Assay (FRET peptide phosphorylation), FGFR3; format: biochemical; details: for FGFR1/FGFR3 IC50 ratio / FGFR4/FGFR3 IC50 ratio: FGFR3 selectivity; for IC50: read-out: FGFR3 IC50
Protocol: as §1, §3

FGFR4 = FGFR4 (Homo sapiens (Human), UniProt P22455); test: FGFR Enzymatic Assay (FRET peptide phosphorylation), FGFR4; format: biochemical; details: for FGFR1/FGFR4 IC50 ratio / FGFR2/FGFR4 IC50 ratio / FGFR3/FGFR4 IC50 ratio: FGFR4 selectivity
Protocol: as §1, §2, §3

FGFR1 = FGFR1 (Homo sapiens (Human), UniProt P11362); test: FGFR Enzymatic Assay (FRET peptide phosphorylation), FGFR1
[1] = FGFR1 IC50 (nM), pre-incubated for 4 hours
[2] = pre-incubated for 5 to 10 minutes
[3] = read-out: FGFR1 IC50, pre-incubated for 5 to 10 minutes
[4] = read-out: FGFR1 IC50, pre-incubated for 4 hours
[5] = FGFR1 IC50 (nM), pre-incubated for 5 to 10 minutes

FGFR4, sequence (P22455 22-802): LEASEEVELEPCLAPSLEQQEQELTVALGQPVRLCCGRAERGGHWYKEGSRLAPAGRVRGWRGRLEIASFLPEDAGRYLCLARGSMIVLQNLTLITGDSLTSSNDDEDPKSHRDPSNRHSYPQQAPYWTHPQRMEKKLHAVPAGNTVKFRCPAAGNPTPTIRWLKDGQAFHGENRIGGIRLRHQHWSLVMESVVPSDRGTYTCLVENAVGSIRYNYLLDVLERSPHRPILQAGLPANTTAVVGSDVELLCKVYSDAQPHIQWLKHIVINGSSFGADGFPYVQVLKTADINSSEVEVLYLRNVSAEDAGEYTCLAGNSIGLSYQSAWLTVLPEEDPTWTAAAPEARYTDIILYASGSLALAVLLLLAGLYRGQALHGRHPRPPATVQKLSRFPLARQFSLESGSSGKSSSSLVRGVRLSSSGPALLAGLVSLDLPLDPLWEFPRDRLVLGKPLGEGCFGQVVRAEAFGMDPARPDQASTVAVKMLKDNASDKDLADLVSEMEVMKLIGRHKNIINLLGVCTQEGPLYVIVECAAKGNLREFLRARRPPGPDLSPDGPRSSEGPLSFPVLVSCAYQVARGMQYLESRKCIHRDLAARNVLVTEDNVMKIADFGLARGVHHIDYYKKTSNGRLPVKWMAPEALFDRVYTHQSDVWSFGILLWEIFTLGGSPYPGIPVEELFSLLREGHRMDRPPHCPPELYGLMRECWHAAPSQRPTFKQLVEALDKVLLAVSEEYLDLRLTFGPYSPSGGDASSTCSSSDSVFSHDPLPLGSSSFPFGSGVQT
FGFR1, sequence (P11362 22-822): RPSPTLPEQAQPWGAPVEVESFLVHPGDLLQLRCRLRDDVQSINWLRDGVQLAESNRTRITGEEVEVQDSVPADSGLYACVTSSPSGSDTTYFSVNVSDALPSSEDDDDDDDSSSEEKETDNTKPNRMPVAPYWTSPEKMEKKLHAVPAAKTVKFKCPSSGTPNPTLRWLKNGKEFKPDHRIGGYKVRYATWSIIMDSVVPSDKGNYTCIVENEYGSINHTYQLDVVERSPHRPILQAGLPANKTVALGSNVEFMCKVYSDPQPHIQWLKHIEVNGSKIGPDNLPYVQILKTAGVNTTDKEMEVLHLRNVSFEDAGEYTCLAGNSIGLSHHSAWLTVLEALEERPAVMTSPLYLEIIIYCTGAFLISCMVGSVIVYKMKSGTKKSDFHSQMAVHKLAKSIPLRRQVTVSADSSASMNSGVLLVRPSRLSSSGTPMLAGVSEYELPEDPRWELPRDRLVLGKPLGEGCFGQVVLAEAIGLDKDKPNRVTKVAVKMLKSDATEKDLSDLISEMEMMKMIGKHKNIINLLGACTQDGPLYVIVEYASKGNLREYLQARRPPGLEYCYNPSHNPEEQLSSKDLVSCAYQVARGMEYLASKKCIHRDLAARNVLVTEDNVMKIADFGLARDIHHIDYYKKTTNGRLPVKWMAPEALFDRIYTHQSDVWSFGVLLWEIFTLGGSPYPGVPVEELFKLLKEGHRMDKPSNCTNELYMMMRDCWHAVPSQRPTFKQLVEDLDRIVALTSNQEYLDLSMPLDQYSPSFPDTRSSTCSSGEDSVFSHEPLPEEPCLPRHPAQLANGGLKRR
FGFR2, sequence (P21802 22-821): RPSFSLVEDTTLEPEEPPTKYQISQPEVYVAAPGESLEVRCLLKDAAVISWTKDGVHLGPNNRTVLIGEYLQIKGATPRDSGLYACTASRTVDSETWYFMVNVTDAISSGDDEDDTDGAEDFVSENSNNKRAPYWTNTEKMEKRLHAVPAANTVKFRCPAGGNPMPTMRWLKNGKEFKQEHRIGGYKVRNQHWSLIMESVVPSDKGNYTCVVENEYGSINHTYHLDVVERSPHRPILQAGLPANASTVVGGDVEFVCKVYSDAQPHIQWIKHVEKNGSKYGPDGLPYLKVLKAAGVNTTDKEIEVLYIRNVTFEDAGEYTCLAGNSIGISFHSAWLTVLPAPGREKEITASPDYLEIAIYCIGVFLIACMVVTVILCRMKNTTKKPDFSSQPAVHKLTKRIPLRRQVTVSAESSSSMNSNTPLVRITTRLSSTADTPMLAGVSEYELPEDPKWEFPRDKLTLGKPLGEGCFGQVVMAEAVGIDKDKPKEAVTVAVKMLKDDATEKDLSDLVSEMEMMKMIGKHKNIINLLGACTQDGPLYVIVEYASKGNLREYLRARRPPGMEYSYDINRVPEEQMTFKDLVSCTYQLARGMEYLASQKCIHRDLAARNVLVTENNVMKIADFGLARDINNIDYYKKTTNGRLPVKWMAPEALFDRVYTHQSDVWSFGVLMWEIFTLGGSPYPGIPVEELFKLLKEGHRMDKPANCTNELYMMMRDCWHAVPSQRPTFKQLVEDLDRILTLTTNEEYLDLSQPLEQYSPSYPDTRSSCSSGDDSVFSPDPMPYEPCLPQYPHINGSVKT
FGFR3 enzyme, sequence (P22607 23-806): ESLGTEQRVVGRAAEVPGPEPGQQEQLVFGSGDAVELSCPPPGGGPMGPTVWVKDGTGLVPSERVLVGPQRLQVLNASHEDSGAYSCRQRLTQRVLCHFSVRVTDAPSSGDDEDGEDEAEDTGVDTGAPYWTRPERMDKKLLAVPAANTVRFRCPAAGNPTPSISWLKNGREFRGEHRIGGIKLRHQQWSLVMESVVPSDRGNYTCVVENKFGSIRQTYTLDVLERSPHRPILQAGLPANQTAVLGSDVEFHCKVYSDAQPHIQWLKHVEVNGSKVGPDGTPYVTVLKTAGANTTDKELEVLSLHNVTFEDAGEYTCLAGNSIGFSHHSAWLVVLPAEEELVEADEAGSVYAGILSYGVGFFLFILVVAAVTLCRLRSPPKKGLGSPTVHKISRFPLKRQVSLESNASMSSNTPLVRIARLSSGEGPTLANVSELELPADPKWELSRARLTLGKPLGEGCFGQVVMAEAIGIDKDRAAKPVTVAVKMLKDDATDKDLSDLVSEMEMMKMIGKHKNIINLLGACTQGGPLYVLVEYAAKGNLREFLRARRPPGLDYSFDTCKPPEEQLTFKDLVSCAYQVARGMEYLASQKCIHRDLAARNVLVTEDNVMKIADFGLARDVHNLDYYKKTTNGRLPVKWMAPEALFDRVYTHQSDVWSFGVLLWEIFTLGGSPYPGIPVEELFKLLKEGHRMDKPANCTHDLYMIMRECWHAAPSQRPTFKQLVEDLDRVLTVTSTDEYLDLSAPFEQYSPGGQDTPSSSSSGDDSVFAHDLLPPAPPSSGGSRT

Row | SMILES | IC50 (FGFR2; pre-incubated for 4 hours) [nM] | FGFR1/FGFR3 IC50 ratio (FGFR3 enzyme; pre-incubated for 4 hours) | FGFR4/FGFR3 IC50 ratio (FGFR3 enzyme; pre-incubated for 4 hours) | IC50 (FGFR3 enzyme; pre-incubated for 4 hours) [nM] | IC50 (FGFR4; pre-incubated for 4 hours) [nM] | IC50 (FGFR1; [1]) [nM] | IC50 (FGFR2; [2]) [nM] | IC50 (FGFR3 enzyme; [2]) [nM] | FGFR1/FGFR4 IC50 ratio (FGFR4; [2]) | FGFR2/FGFR4 IC50 ratio (FGFR4; [2]) | FGFR3/FGFR4 IC50 ratio (FGFR4; [2]) | FGFR1/FGFR4 IC50 ratio (FGFR4; pre-incubated for 4 hours) | FGFR2/FGFR4 IC50 ratio (FGFR4; pre-incubated for 4 hours) | FGFR3/FGFR4 IC50 ratio (FGFR4; pre-incubated for 4 hours) | IC50 (FGFR4; [2]) [nM] | IC50 (FGFR1; [3]) [nM] | IC50 (FGFR1; [4]) [nM] | IC50 (FGFR1; [5]) [nM]
1 | COc1cc(OC)c(F)c(N2Cc3cnc(-c4cn(C)nc4C)cc3N(c3ccc(S(C)(=O)=O)cc3)C2=O)c1F [Example 98, 3-(2,6-difluoro-3,5-dimethoxyphenyl)-7-(1,3-dimethyl-1H-pyrazol-4-yl)-1-(4-(methylsulfonyl)phenyl)-3,4-dihydropyrido[4,3-d]pyrimidin-2(1H)-one] | 10 to 30 | >5 | >10 | 10 to 30 | 30 to 200 | 30 to 200 |  |  |  |  |  |  |  |  |  |  |  | 
2 | COc1cc(OC)c(F)c(N2Cc3cnc(-c4cncc(Cl)c4)cc3C3(CC3)C2=O)c1F [Example 11, 6′-(5-chloropyridin-3-yl)-2′-(2,6-difluoro-3,5-dimethoxyphenyl)-1′H-spiro[cyclopropane-1,4′-[2,7]naphthyridin]-3′(2′H)-one] | > 200 | >1 |  | > 200 | 10 to 30 |  | > 200 | 30 to 200 | >50 | >20 | >25 | >25 | >25 | >10 | 10 to 30 | > 200 | > 200 | 
3 | COc1cncc(-c2cc3c(cn2)CN(c2c(F)c(OC)cc(OC)c2F)C(=O)C32CC2)c1 [Example 10, 2′-(2,6-difluoro-3,5-dimethoxyphenyl)-6′-(5-methoxypyridin-3-yl)-1′H-spiro[cyclopropane-1,4′-[2,7]naphthyridin]-3′(2′H)-one] | 10 to 30 | >1 |  | 10 to 30 | < 10 | 30 to 200 | 10 to 30 | 10 to 30 | >25 | >10 | >10 | >25 | >25 | >10 | < 10 |  |  | 30 to 200
4 | COc1cc(OC)c(F)c(N2Cc3cnc(-c4cn(C)nc4C)cc3N(Cc3cnn(CC4CC4)c3)C2=O)c1F [Example 126, 1-((1-(cyclopropylmethyl)-1H-pyrazol-4-yl)methyl)-3-(2,6-difluoro-3,5-dimethoxyphenyl)-7-(1,3-dimethyl-1H-pyrazol-4-yl)-3,4-dihydropyrido[4,3-d]pyrimidin-2(1H)-one] |  |  |  |  |  |  | < 10 | < 10 |  |  |  |  |  |  | 30 to 200 |  |  | 10 to 30
5 | COc1cc(OC)c(F)c(N2Cc3cnc(-c4cncc(C#N)c4)cc3C3(CC3)C2=O)c1F [Example 8, 5-(2′-(2,6-difluoro-3,5-dimethoxyphenyl)-3′-oxo-2′,3′-dihydro-1′H-spiro[cyclopropane-1,4′-[2,7]naphthyridine]-6′-yl)nicotinonitrile] | > 200 | >5 |  | 30 to 200 | 10 to 30 |  | > 200 | 30 to 200 | >50 | >10 | >10 | >50 | >10 | >10 | 10 to 30 | > 200 | > 200 | 
6 | COc1cc(OC)c(F)c(N2Cc3cnc(-c4cncc(F)c4)cc3C3(CC3)C2=O)c1F [Example 5, 2′-(2,6-difluoro-3,5-dimethoxyphenyl)-6′-(5-fluoropyridin-3-yl)-1′H-spiro[cyclopropane-1,4′-[2,7]naphthyridin]-3′(2′H)-one] | 10 to 30 | >3 |  | 10 to 30 | < 10 | 30 to 200 | 10 to 30 | 10 to 30 | >10 | >5 | >4 | >10 | >5 | >1 | < 10 |  |  | 30 to 200
7 | COc1cc(OC)c(F)c(N2Cc3cnc(-c4cn(C)nc4C)cc3N(c3ccn(C)n3)C2=O)c1F [Example 100, 3-(2,6-difluoro-3,5-dimethoxyphenyl)-7-(1,3-dimethyl-1H-pyrazol-4-yl)-1-(1-methyl-1H-pyrazol-3-yl)-3,4-dihydropyrido[4,3-d]pyrimidin-2(1H)-one] | 10 to 30 | >5 | >5 | 10 to 30 | 30 to 200 | 30 to 200 |  |  |  |  |  |  |  |  |  |  |  | 
8 | COc1cc(OC)c(F)c(N2Cc3cnc(-c4cn(C)nc4C)cc3N(c3ccc4ncsc4c3)C2=O)c1F [Example 41, 1-(1,3-benzothiazol-6-yl)-3-(2,6-difluoro-3,5-dimethoxyphenyl)-7-(1,3-dimethyl-1H-pyrazol-4-yl)-3,4-dihydropyrido[4,3-d]pyrimidin-2(1H)-one] | 10 to 30 | >1 | >5 | 10 to 30 | 30 to 200 | 30 to 200 |  |  |  |  |  |  |  |  |  |  |  | 
9 | COc1cc(OC)c(F)c(N2Cc3cnc(-c4cncc(CN5CCOCC5)c4)cc3C3(CC3)C2=O)c1F [Example 16, 2′-(2,6-difluoro-3,5-dimethoxyphenyl)-6′-(5-(morpholinomethyl)pyridin-3-yl)-1′H-spiro[cyclopropane-1,4′-[2,7]naphthyridin]-3′(2′H)-one] | 30 to 200 | >1 |  | 30 to 200 | < 10 |  | 30 to 200 | 30 to 200 | >25 | >10 | >10 | >50 | >25 | >10 | < 10 | > 200 | > 200 | 
10 | COc1cc(OC)c(F)c(N2Cc3cnc(-c4cn(C)nc4C)cc3N(c3ccc(C(=O)N(C)C)cc3)C2=O)c1F [Example 113, 4-(3-(2,6-difluoro-3,5-dimethoxyphenyl)-7-(1,3-dimethyl-1H-pyrazol-4-yl)-2-oxo-3,4-dihydropyrido[4,3-d]pyrimidin-1(2H)-yl)-N,N-dimethylbenzamide] | < 10 | >3 | >5 | 10 to 30 | 30 to 200 | 30 to 200 |  |  |  |  |  |  |  |  |  |  |  | 

Next, values leading:

Row | IC50 (FGFR2; pre-incubated for 4 hours) [nM] | FGFR1/FGFR3 IC50 ratio (FGFR3 enzyme; pre-incubated for 4 hours) | FGFR4/FGFR3 IC50 ratio (FGFR3 enzyme; pre-incubated for 4 hours) | IC50 (FGFR3 enzyme; pre-incubated for 4 hours) [nM] | IC50 (FGFR4; pre-incubated for 4 hours) [nM] | IC50 (FGFR1; [1]) [nM] | IC50 (FGFR2; [2]) [nM] | IC50 (FGFR3 enzyme; [2]) [nM] | FGFR1/FGFR4 IC50 ratio (FGFR4; [2]) | FGFR2/FGFR4 IC50 ratio (FGFR4; [2]) | FGFR3/FGFR4 IC50 ratio (FGFR4; [2]) | FGFR1/FGFR4 IC50 ratio (FGFR4; pre-incubated for 4 hours) | FGFR2/FGFR4 IC50 ratio (FGFR4; pre-incubated for 4 hours) | FGFR3/FGFR4 IC50 ratio (FGFR4; pre-incubated for 4 hours) | IC50 (FGFR4; [2]) [nM] | IC50 (FGFR1; [3]) [nM] | IC50 (FGFR1; [4]) [nM] | IC50 (FGFR1; [5]) [nM] | SMILES
11 | < 10 | >5 | >1 | < 10 | 30 to 200 | 30 to 200 |  |  |  |  |  |  |  |  |  |  |  |  | CCN1C(=O)N(c2c(F)c(OC)cc(OC)c2F)Cc2cnc(-c3cn(CCN4CCOCC4)nc3C)cc21 [Example 49, 3-(2,6-difluoro-3,5-dimethoxyphenyl)-1-ethyl-7-(3-methyl-1-(2-morpholinoethyl)-1H-pyrazol-4-yl)-3,4-dihydropyrido[4,3-d]pyrimidin-2(1H)-one]
12 | < 10 | >5 | >10 | < 10 | 30 to 200 | 10 to 30 |  |  |  |  |  |  |  |  |  |  |  |  | COc1cc(OC)c(F)c(N2Cc3cnc(-c4cn(C)nc4C)cc3N(c3cccc(-c4cnnn4C)c3)C2=O)c1F [Example 89, 3-(2,6-difluoro-3,5-dimethoxyphenyl)-7-(1,3-dimethyl-1H-pyrazol-4-yl)-1-(3-(1-methyl-1H-1,2,3-triazol-5-yl)phenyl)-3,4-dihydropyrido[4,3-d]pyrimidin-2(1H)-one]
13 | < 10 | >3 | >3 | < 10 | 10 to 30 | 10 to 30 |  |  |  |  |  |  |  |  |  |  |  |  | COc1cc(OC)c(F)c(N2Cc3cnc(-c4cn(CCC5CCNCC5)nc4C)cc3C3(CC3)C2=O)c1F [Example 165, 2′-(2,6-difluoro-3,5-dimethoxyphenyl)-6′-(3-methyl-1-(2-(piperidin-4-yl)ethyl)-1H-pyrazol-4-yl)-1′H-spiro[cyclopropane-1,4′-[2,7]naphthyridin]-3′(2′H)-one]
14 | < 10 | >5 | >1 | < 10 | 10 to 30 | 30 to 200 |  |  |  |  |  |  |  |  |  |  |  |  | COc1cc(OC)c(F)c(N2Cc3cnc(-c4cn(C5CCS(=O)(=O)C5)nc4C)cc3C3(CC3)C2=O)c1F (stereo not shown) [Example 54, 2′-(2,6-difluoro-3,5-dimethoxyphenyl)-6′-[1-(1,1-dioxidotetrahydro-3-thienyl)-3-methyl-1H-pyrazol-4-yl]-1′,2′-dihydro-3′H-spiro[cyclopropane-1,4′-[2,7]naphthyridin]-3′-one]
15 | < 10 | >5 | >5 | < 10 | 30 to 200 | 30 to 200 |  |  |  |  |  |  |  |  |  |  |  |  | COc1cc(OC)c(F)c(N2Cc3cnc(-c4cn(C)nc4C)cc3N(c3cccc(F)c3)C2=O)c1F [Example 99, 3-(2,6-difluoro-3,5-dimethoxyphenyl)-7-(1,3-dimethyl-1H-pyrazol-4-yl)-1-(3-fluorophenyl)-3,4-dihydropyrido[4,3-d]pyrimidin-2(1H)-one]
